Data on 25 compounds can be found in EP1219631A1, “ANTIANDROGEN AGENTS” (CHUGAI SEIYAKU KABUSHIKI KAISHA, priority 1999, dated 2001).

Like-named read-outs stand apart in the source and are kept apart here.

In test [1] the target is T1, human androgen receptor (Homo sapiens, UniProt P10275).
T1 construct: expressed in transfected cells; host or cells: HeLa cells
T1 sequence (P10275 1-920): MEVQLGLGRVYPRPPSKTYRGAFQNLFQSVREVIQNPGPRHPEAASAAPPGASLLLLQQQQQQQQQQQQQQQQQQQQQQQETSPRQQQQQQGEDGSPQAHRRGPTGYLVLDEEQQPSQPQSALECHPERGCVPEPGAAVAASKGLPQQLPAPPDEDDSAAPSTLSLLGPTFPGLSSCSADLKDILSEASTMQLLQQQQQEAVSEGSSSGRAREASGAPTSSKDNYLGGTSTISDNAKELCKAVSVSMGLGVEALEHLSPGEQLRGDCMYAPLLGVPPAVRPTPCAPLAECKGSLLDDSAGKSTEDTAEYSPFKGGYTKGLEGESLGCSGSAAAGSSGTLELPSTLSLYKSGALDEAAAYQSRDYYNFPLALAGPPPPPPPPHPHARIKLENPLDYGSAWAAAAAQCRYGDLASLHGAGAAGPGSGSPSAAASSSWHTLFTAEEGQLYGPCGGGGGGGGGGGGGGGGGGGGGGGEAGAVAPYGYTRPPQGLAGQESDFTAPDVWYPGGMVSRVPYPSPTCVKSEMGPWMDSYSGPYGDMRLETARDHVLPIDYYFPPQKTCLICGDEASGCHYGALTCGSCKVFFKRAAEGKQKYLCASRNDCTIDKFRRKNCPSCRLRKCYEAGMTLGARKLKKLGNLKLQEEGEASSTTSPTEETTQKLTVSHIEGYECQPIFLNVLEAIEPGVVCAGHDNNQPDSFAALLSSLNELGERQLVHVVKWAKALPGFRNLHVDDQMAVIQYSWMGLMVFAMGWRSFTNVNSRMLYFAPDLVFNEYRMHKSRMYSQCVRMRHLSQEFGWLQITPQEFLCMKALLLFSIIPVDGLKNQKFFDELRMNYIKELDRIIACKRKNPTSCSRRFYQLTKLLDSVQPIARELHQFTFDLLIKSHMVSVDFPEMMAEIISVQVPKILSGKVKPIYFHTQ
The test is described as follows: Androgen receptor reporter gene assay, antagonist action against DHT (MMTV-Luc, pSG5/hAR and Renilla Luc vectors transfected into HeLa cells, dual-luciferase). It is filed as cell-based. As for the experimental part:
The expression "acting as antagonist" means that in the following androgen receptor gene assay, the transcriptional activity value of 0.1 nmol/L of dihydrotestosterone (DHT) is inhibited to 0 - 50% at any concentration of 0.1 nmol/L - 10 µmol/L:
Twenty-four hours before transfection, 1.0 x 10^5 HeLa cells are cultured in phenol red free DMEM/5% DCC-FBS on 12-well microplates. Five hundred nanograms/well of MMTV-Luc vector, 100 ng/well of pSG5/hAR and 5 ng/well of Renilla Luc vector are transfected into the HeLa cells. The transfection is performed in a liquid culture of the phenol red free DMEM using […] of lipofectoamine. Nine hours after the transfection, the liquid culture is replaced by phenol red free DMEM/3% DCC-FBS containing 0.1 nmol/L of DHT and […] of a compound of the invention which is represented by the general formula (I) or the substance of the invention which acts as antagonist against but not as agonist for the androgen receptor. The transcriptional activity value is measured 48 hours after the replacement of the liquid culture. Transcriptional activity is measured with a dual-luciferase reporter assay system. The transcriptional activity value is defined as the value for firefly luciferase divided by the value for sea pansy luciferase. […] 270, pp. 19998-20003, 1995.
(§1) Twenty-four hours before transfection, 1.0 x 10^5 HeLa cells were cultured in phenol red free DMEM/5% DCC-FBS on 12-well microplates. Five hundred nanograms/well of MMTV-Luc vector, 100 ng/well of pSG5/hAR and 5 ng/well of Renilla Luc vector were transfected into the HeLa cells. The transfection was performed in a liquid culture of the phenol red free DMEM using […] of lipofectoamine. […] The transcriptional activity value was measured 48 hours after the replacement of the liquid culture. Transcriptional activity was measured with a dual-luciferase reporter assay system. The transcriptional activity value was calculated as the value for firefly luciferase divided by the value for sea pansy luciferase.
The compound was added at concentrations of 1, 10, 100, 1000 and 10000 nmol/L and at each of these concentrations, measurement was done in the presence of DHT (0.1 nmol/L). Antagonist activity = Transcriptional activity when the compound was added/Transcriptional activity when the compound was not added x 100 [formula]

Test [2] deals with T1, human androgen receptor. The test is described as follows: Androgen receptor reporter gene assay, agonist action (MMTV-Luc, pSG5-hAR and Renilla Luc vectors transfected into HeLa cells, dual-luciferase). It is filed as cell-based. To be noted: for FI5 value: concentration showing a transcriptional activity five times that without compound, tested at 1, 10, 100, 1000 and 10000 nmol/L.
Text: Speaking of the substance of the invention which acts as antagonist against but not as agonist for the androgen receptor, the expression "not acting as agonist" means that in the following androgen receptor gene assay, the transcriptional activity value of the substance at any concentration of 0.1 nmol/L - 10 µmol/L is from one to five times the transcriptional activity value for no addition of the substance which is taken as unity:
Twenty-four hours before transfection, 1.0 x 10^5 HeLa cells (purchased from Dainippon Pharmaceutical Co., Ltd.) are cultured in phenol red free Dulbecco's modified Eagle medium (DMEM) containing 5% of charcoal-treated FBS (DCC-FBS) in 12-well microplates. Five hundred nanograms/well of MMTV-Luc vector (the reporter plasmid of luciferase having mouse tumor long terminal repeats containing the androgen response element: GM-CAT vector (A.T.C.C. No. 67282) purchased from A.T.C.C. provided that the chloramphenicol acetyl transferase gene was replaced by the firefly luciferase gene), 100 ng/well of pSG5-hAR (the expression vector of the human androgen receptor which harbors the androgen receptor gene under the control of SV40 promoter) and 5 ng/well of Renilla Luc vector (a vector for internal standard incorporating the sea pansy luciferase gene) are transfected into the HeLa cells. The transfection is performed in a liquid culture of the phenol red free DMEM using […] of lipofectoamine (GibcoBRL). Nine hours after the transfection, the liquid culture is replaced by phenol red free DMEM/3% DCC-FBS containing 10 µmol/L of a compound of the invention which is represented by the general formula (I) or the substance of the invention which acts as antagonist against but not as agonist for the androgen receptor. The transcriptional activity value is measured 48 hours after the replacement of the liquid culture. Transcriptional activity is measured with a dual-luciferase reporter assay system (Promega). The transcriptional activity value is defined as the value for firefly luciferase divided by the value for sea pansy luciferase. […] 270, pp. 19998-20003, 1995.
as §1, with “pSG5-hAR” for “pSG5/hAR”
The compound was added at concentrations of 1, 10, 100, 1000 and 10000 nmol/L. Agonist activity = Transcriptional activity when the compound was added/Transcriptional activity when the compound was not added [formula]

Setting [3] is: concentration giving 50% decrease in the transcriptional activity of DHT 0.1 nmol/L, tested at 1, 10, 100, 1000 and 10000 nmol/L, read-out: IC50 value.

On to `C[C@]12CCC(=O)C[C@@H]1C[C@@H](CCCCCCCC(=O)NCCO)[C@@H]1[C@@H]2CC[C@]2(C)[C@@H](O)CC[C@@H]12` (stereo in doubt) [Example 64, 17β-hydroxy-7α-[7-{N-(2-hydroxyethyl]-aminocarbonyl}heptyl]-5α-androstan-3-one], for which the IC50 in test [1] (setting [3]) worked out at 0.809 µM.

As to `CNC(=O)CCCOc1cccc(CCC[C@@H]2C[C@H]3CC(=O)CC[C@]3(C)[C@H]3CC[C@]4(C)[C@@H](O)CC[C@H]4[C@H]23)c1` (stereo in doubt) [Example 164, 17β-hydroxy-7α-[3-[3-{3-(N-methylaminocarbonyl)propoxy}phenyl]propyl]-5α-androstan-3-one], the FI5 value result in test [2] is “ND (even when the compound was added at a concentration of 10000 nM, the transcriptional activity of the compound-treated group was less than 5 times the transcriptional activity of the control group, making it impossible to compute the FI5 value)”. The concentration for half-maximal inhibition (IC50) in test [1] is 0.291 µM.

For the compound `CCCCN(C)C(=O)CCCCCCCCCC[C@@H]1CC2=CC(=O)CC[C@]2(C)[C@H]2CC[C@]3(C)[C@@H](O)CC[C@H]3[C@H]12` [EM-101, reference compound], the IC50 in test [1] (setting [3]) was 2.62 µM.

`CN(C)C(=O)CCCCCCC[C@@H]1C[C@H]2CC(=O)CC[C@]2(C)[C@H]2CC[C@]3(C)[C@@H](O)CC[C@H]3[C@H]12` [Example 9, 17β-hydroxy-7α-{7-(N,N-dimethylaminocarbonyl)-heptyl}-5α-androstan-3-one] came in with an IC50 in test [1] of 0.451 µM.

For `CCNC(=O)CCCCCCC[C@@H]1C[C@H]2CC(=O)CC[C@]2(C)[C@H]2CC[C@]3(C)[C@@H](O)CC[C@H]3[C@H]12` [Example 10], the half-maximal inhibitory concentration (IC50) in test [1] (setting [3]) is 0.937 µM.

For the compound `CC(C)NC(=O)CCCCCCCC1CC2CC(=O)CCC2(C)C2CCC3(C)C(O)CCC3C12` (stereo not shown) [Example 14], the FI5 value result in test [2] was “ND (even when the compound was added at a concentration of 10000 nM, the transcriptional activity of the compound-treated group was less than 5 times the transcriptional activity of the control group, making it impossible to compute the FI5 value)”. In test [1], the half-maximal inhibitory concentration (IC50) amounted to 1.98 µM.

For `CCCCN(C)C(=O)CCCCCCCC1CC2CC(=O)CCC2(C)C2CCC3(C)C(O)CCC3C12` (stereo not shown) [Example 18], the IC50 in test [1] amounted to 0.342 µM.

`CCN(CC)C(=O)CCCCCCCC1CC2CC(=O)CCC2(C)C2CCC3(C)C(O)CCC3C12` (stereo not shown) [Example 19]: the 50% inhibitory concentration (IC50) in test [1] was found to be 0.295 µM.

As for `CC12CCC3C(C(CCCCCCCC(=O)NCc4ccco4)CC4CC(=O)CCC43C)C1CCC2O` (stereo not shown) [Example 23], the concentration for half-maximal inhibition (IC50) in test [1] (setting [3]) is 1.3 µM.

Take `CNC(=O)CCCCCCCC1CC2CC(=O)CCC2(C)C2CCC3(C)C(O)CCC3C12` (stereo not shown) [Example 24]: inhibition in test [1] was half-maximal at 0.477 µM (IC50).

For the compound `CCN(C)C(=O)CCCCCCCC1CC2CC(=O)CCC2(C)C2CCC3(C)C(O)CCC3C12` (stereo not shown) [Example 25], the IC50 in test [1] (setting [3]) turned out to be 0.415 µM.

Take `CCCN(C)C(=O)CCCCCCCC1CC2CC(=O)CCC2(C)C2CCC3(C)C(O)CCC3C12` (stereo not shown) [Example 26]: the IC50 in test [1] (setting [3]) stood at 1.13 µM.

With `CC(C)N(C)C(=O)CCCCCCCC1CC2CC(=O)CCC2(C)C2CCC3(C)C(O)CCC3C12` (stereo not shown) [Example 27], in test [1], the IC50 was 0.421 µM.

`CC12CCC3C(C(CCCCCCCC(=O)N4CCCC4)CC4CC(=O)CCC43C)C1CCC2O` (stereo not shown) [Example 29]: the FI5 value result in test [2] was “ND (even when the compound was added at a concentration of 10000 nM, the transcriptional activity of the compound-treated group was less than 5 times the transcriptional activity of the control group, making it impossible to compute the FI5 value)”. For the same compound, inhibition in test [1] was half-maximal at 0.304 µM (IC50).

Take `CN(C)C(=O)CCCCCCCCCC1CC2CC(=O)CCC2(C)C2CCC3(C)C(O)CCC3C12` (stereo not shown) [Example 42]: the IC50 in test [1] (setting [3]) worked out at 0.342 µM.

Regarding `CCN(CC)C(=O)CCCCCCCCCC1CC2CC(=O)CCC2(C)C2CCC3(C)C(O)CCC3C12` (stereo not shown) [Example 43], the IC50 in test [1] (setting [3]) is 1.3 µM.

On to `CCCCN(C)C(=O)CCCCCCCCCC1CC2CC(=O)CCC2(C)C2CCC3(C)C(O)CCC3C12` (stereo not shown) [Example 46], for which the IC50 in test [1] (setting [3]) is 1.75 µM.

Turning to `CCCN(C)C(=O)CCCCCCCCCC1CC2CC(=O)CCC2(C)C2CCC3(C)C(O)CCC3C12` (stereo not shown) [Example 50], the 50% inhibitory concentration (IC50) in test [1] (setting [3]) is 0.737 µM.

As to `CC12CCC3C(C(CCCCCCCCCC(=O)N4CCOCC4)CC4CC(=O)CCC43C)C1CCC2O` (stereo not shown) [Example 51], the IC50 in test [1] (setting [3]) amounted to 0.474 µM.

Consider `CCCNC(=O)CCCCCCCC1CC2CC(=O)CCC2(C)C2CCC3(C)C(O)CCC3C12` (stereo not shown) [Example 65], for which the concentration for half-maximal inhibition (IC50) in test [1] (setting [3]) was 1.83 µM.

In the case of `CC12CCC3C(C(CCCCCCCC(=O)NCc4ccccc4)CC4CC(=O)CCC43C)C1CCC2O` (stereo not shown) [Example 73], in test [1] (setting [3]), the IC50 stood at 1.1 µM.

Regarding `CCN(CC)C(=O)CCCCCCCCCC1CC2(C)C(O)CCC2C2CCC3CC(=O)CCC3(C)C12` (stereo not shown) [Example 96], in test [1] (setting [3]), the IC50 stood at 1.6 µM.

Regarding `CC12CCC3C(C(CCCc4cccc(OCCCCC(=O)N5CCCC5)c4)CC4CC(=O)CCC43C)C1CCC2O` (stereo not shown) [Example 167], the IC50 in test [1] (setting [3]) was found to be 0.475 µM.

For the compound `CN(C)C(=O)CCCOc1cccc(CCCC2CC3CC(=O)CCC3(C)C3CCC4(C)C(O)CCC4C23)c1` (stereo not shown) [Example 168], the IC50 in test [1] (setting [3]) turned out to be 0.54 µM.

Regarding bicaltamide, the “transcriptional activity value relative to the case of non-addition” value in test [2] (Example 1, HeLa cells, 48 hours) was “more than five times”. The acting as agonist result in test [2] (at a concentration of 10 µmol/L) was “act as agonist”. For the same compound, the FI5 value in test [2] is 767 nM. In addition, the “agonist action for the androgen receptor mediated transcriptional activity” value in test [2] (summary of the results of Example 180) is on record as “exhibit agonist action”.
